The values that follow come from patent US20100035867A1 (priority 2006, published 2010).

Structures are written as SMILES. Several values for one entry are separate records, joined by “and”; a condition that tells them apart may be missing. Equal values may be shown once.

One assay concerns T84 cells. Briefly: STa-induced chloride transport in T84 cells (SPQ). The following applies: increasing STa concentrations, 50 μM compound. The class given is cell-based, human. The procedure: The chloride transport assay was performed by a method known in the art (West, M. R.; Molloy, C. R., A microplate assay measuring chloride ion channel activity. Anal Biochem 1996, 241, (1), 51-8). In some experiments, MQAE was used as a fluorescent sensor for chloride anions and in other experiments, SPQ was used to detect chloride efflux from T84 cells.
This experiment followed the protocol described in Examples 2 and 10. SPQ was used to detect chloride efflux from T84 cells.

For assay [1], the target named is T1, guanylyl cyclase type A (GC-A) (Rattus norvegicus, UniProt P18910).
T1 sequence (P18910 29-1057): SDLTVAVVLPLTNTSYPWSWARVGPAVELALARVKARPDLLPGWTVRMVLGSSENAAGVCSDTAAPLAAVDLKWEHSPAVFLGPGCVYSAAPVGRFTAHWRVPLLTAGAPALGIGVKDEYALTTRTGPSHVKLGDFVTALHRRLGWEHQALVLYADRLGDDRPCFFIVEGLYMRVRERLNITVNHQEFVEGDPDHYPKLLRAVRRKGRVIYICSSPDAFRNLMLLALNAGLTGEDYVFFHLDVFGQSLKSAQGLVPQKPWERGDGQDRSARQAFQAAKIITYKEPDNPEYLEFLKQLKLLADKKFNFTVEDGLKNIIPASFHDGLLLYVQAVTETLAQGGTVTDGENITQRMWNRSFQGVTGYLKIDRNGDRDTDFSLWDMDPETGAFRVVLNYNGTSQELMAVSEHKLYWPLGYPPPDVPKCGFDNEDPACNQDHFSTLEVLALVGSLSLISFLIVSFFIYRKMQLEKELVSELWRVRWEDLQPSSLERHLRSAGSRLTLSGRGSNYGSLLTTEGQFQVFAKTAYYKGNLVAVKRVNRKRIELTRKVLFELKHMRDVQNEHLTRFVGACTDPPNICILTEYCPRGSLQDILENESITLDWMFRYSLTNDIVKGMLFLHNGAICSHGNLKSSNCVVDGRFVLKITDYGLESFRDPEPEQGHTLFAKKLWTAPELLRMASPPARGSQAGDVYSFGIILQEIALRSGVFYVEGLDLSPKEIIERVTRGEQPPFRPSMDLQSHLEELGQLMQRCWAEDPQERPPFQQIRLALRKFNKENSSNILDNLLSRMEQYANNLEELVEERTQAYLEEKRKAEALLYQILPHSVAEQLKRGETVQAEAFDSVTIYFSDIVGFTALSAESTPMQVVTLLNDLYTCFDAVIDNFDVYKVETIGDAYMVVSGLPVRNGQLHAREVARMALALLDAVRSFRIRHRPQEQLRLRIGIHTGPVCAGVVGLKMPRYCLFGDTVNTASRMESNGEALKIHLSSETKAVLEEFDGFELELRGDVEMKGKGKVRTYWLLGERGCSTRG
The experiment in a line: ANP-induced cyclic GMP accumulation in RFL-6 fibroblast cells. The following applies: RFL-6 cells, 1 μM ANP, 50 μM compound.

The subject of a further assay is adenylyl cyclase. The class given is cell-based, human.

For the molecule `Cn1c2c(c(=O)n(C)c1=O)C(c1cccc(Br)c1)C1=C(N2)c2ccccc2C1=O` (stereo not drawn) [compound IIb], in the assay with T84 cells, the “STa-induced increase in chloride efflux” value is on record as “significantly suppressed”. Besides, the “inhibition of cyclic GMP accumulation (FIG. 6)” value in assay [1] is “inhibition”. For the same molecule, the “inhibition of cyclic AMP accumulation” value in the assay on adenylyl cyclase is 41.3% and 58.2%.
